Results: US7507555B2, “Probe for detecting and quantifying lipid second messenger and method of detecting and quantifying lipid second messenger using the same” (Japan Science and Technology Agency, priority 2003, dated 2009)

Tests used:
[1] = system: PIP3; test: CFP/YFP emission ratio time course after PDGF stimulation of probe-expressing CHO-PDGFR cells; type: cell-based, Chinese hamster; details: for PIP3 in plasma membranes and endomembranes: stimulation by other peptide ligands instead of PDGF
Experimental: Ovarian cells of Chinese hamster (CHO) were cultured in Ham's F-12 medium supplemented with 10% fetal calf serum (FCS) at 37° C. in 5% CO2. The resulting CHO-PDGFR cells were plated onto glass-bottomed dishes, each of Fllip-pm, Fllip-pmR284C, Fllip-del and Fllip-em expression vectors were transfected with LipofectAMINE2000 reagent (manufactured by Life Technology) and left for 24 hours at 37° C. in 5% CO2.
After serum starvation with serum-free incubating medium, the medium was replaced with a Hank's balanced salt solution. Then, in accordance with a method already reported by the inventors (such as Non-Patent Documents 12 and 13), the cells were imaged at room temperature on a Carl Zeiss Axiovert 135 microscope with a cooled CCD camera, MicroMAX (Roper Scientific lnc, Tucson, Ariz.), controlled by MetaFluor. (Universal Imaging, West Chester, Pa.). The fluorescence images were obtained through 480±15 nm and 535±12.5 nm filters with a 40× oil immersion objective (Carl Zeiss, Jena, Germany). YFP images were detected by a confocal laser scanning microscope LSM 510 (Carl Zeiss).
Response of Fllip-pm to PIP3 produced by physiological stimulation was examined.
Fllip-pm was expressed in CHO-PDGFR cells stably expressing platelet-derived growth factor receptor (PDGFR). PDGF treatment promotes dimerization of PDGFR that results in phosphorylation of multiple tyrosine residues of PDGFR and its activation. PI3K is recruited to these tyrosine phosphorylation sites through its Src-homology 2 (SH2) domain, resulting in its activation (Schlessinger, J. (2000), Cell, 103, 211-225).
The time course of CFP/YFP-emission ratio when PDGF (50 ng/mL) was added to a cell expressing Fllip-pm at plasma membrane are shown in FIG. 6 and FIG. 7.
According to the same method as in Examples 4 and 5, response of Fllip-pmR284C, of which PHD was mutated not to bind to PIP3, was examined.
Fllip-em was expressed in the CHO-PDGFR cells by the same method as in Example 2. After that, the cells were stimulated with PDGF by the same method as in Example 5 and the time course of CFP/YFP emission ratio was measured.

[2] = system: C1B domain derived from PKC; test: Response of DAG-fllip-pm and DAG-fllip-em to phorbol ester (PMA); type: cell-based; details: phorbol ester (PMA) added
Experimental: It has been known that C1B domain derived from PKC is selectively bound to DAG. Therefore, this domain was selected as an LBD and the lipid second messenger detecting- and quantifying-probe (hereinafter, referred to as DAG-Fllip) was prepared. Localization domains to the plasma membrane and endomembranes are linked with DAG-fllip to prepare DAG-fllip-pm and DAG-fllip-em. After that, in order to confirm whether the DAG-fllip-pm and the DAG-fllip-em respond to DAG, the DAG-fllip-pm and the DAG-fllip-em were evaluated by using phorbol ester (PMA), which is a substance having a membrane permeability, and specifically bound to C1B domain.

[3] = PDGF 50 ng/mL, Fllip-pm at plasma membrane of CHO-PDGFR cells

Compound: insulin: other peptide ligand
- PIP3 in plasma membranes and endomembranes [1]: induced the PIP3 increase

Compound: epidermal growth factors: other peptide ligand
- PIP3 in plasma membranes and endomembranes [1]: induced the PIP3 increase

Compound: CCCCCCCCCCCCCC(=O)O[C@@H]1[C@@H](C)[C@@]2(O)[C@@H](C=C(CO)C[C@]3(O)C(=O)C(C)=C[C@@H]23)[C@@H]2C(C)(C)[C@]12OC(C)=O [phorbol ester]
- fluorescence intensity ratio (CFP/YFP) of DAG-fllip-em [2]: decreased
- fluorescence intensity ratio (CFP/YFP) of DAG-fllip-pm [2]: decreased

Compound: PDGF
- CFP/YFP emission ratio [1, 3]: decreased immediately
- time for CFP/YFP emission ratio to reach a plateau [1, 3]: 300 s
- extent of PIP3 increase in the endomembranes relative to that in the plasma membrane ([1]; upon PDGF stimulation): twice to three times
